Calls of active or inactive are those of the source. The calls are words filed in the database; no cut-off is given here.
Assays:
[1] = AUC (0 to t) in Sprague-Dawley rat at 5 mg/kg, iv by LC-MS/MS analysis; format: ADME, organism-based; settings: in vivo
[2] = tested on: Androgen receptor (Homo sapiens), P10275 [UNDEFINED MUTATION]; experiment: Induction of AR-V7 degradation in human 22Rv1 cells at 10 uM incubated for 24 hrs in presence of […] by Western blot analysis; format: cell-based
[3] = tested on: CWR22R; experiment: Downregulation of P3H3 mRNA expression in human 22Rv1 cells at 10 uM incubated for 24 hrs by qRT-PCR analysis; format: functional, cell-based
[4] = Toxicity in NSG mouse xenografted with human 22Rv1 cells assessed as effect on body weight at 30 mg/kg, IG administered once daily for 21 days; format: organism-based, CWR22R; settings: in vivo, po, 504 h, time 21 day
[5] = tested on: CWR22R; experiment: Induction of apoptosis in human 22Rv1 cells at 5 uM incubated for 24 hrs by Annexin V-FITC/PI staining based flow cytometric analysis (reference value: 3.70 %); format: functional
[6] = tested on: CWR22R; experiment: Induction of apoptosis in human 22Rv1 cells assessed as effect on Bcl-xL level incubated for 24 hrs by Western blot analysis; format: functional, cell-based; settings: dose <= 10.0 µM
[7] = tested on: CWR22R; experiment: Downregulation of NCAPD3 mRNA expression in human 22Rv1 cells at 10 uM incubated for 24 hrs by qRT-PCR analysis; format: functional, cell-based
[8] = target: T1, Androgen receptor (Homo sapiens, UniProt P10275); experiment: (§1) Induction of AR degradation in human 22Rv1 cells incubated for 24 hrs by Western blot analysis; format: cell-based
T1 sequence (P10275 whole entry): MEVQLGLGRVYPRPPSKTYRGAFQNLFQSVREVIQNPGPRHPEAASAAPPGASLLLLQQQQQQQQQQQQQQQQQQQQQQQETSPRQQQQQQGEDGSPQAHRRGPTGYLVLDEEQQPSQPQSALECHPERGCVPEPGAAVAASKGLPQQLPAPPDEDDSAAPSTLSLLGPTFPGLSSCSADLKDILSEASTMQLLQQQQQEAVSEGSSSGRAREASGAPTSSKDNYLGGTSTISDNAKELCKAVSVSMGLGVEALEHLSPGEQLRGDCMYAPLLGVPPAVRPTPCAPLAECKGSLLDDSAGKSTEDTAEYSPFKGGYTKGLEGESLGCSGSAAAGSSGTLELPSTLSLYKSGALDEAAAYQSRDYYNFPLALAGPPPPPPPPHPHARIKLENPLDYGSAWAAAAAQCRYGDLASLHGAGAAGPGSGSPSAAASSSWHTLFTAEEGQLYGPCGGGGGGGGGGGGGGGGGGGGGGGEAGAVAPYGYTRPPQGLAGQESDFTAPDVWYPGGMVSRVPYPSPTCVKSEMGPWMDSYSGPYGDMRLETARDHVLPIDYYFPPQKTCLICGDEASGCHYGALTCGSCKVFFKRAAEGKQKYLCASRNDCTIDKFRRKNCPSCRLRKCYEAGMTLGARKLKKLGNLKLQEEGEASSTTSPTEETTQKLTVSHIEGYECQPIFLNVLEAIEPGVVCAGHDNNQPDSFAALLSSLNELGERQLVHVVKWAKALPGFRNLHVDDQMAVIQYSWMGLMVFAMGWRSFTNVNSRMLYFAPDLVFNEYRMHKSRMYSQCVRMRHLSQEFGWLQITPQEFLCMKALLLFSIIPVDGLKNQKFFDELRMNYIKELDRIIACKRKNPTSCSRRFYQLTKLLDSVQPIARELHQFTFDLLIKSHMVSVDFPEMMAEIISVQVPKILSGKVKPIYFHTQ

[9] = target: T2, Androgen receptor (Homo sapiens) (UniProt P10275); experiment: as §1; format: cell-based; settings: dose 1-10 µM
T2 sequence (whole entry): T1 sequence (P10275 whole entry)

[10] = tested on: CWR22R; experiment: Downregulation of ABHD2 mRNA expression in human 22Rv1 cells at 10 uM incubated for 24 hrs by qRT-PCR analysis; format: functional, cell-based
[11] = MRT (0 to infinity) in Sprague-Dawley rat at 50 mg/kg, po by LC-MS/MS analysis; format: ADME, organism-based; settings: in vivo
[12] = tested on: Androgen receptor (Homo sapiens), P10275 [UNDEFINED MUTATION]; experiment: (§2) Induction of AR-V7 degradation in human 22Rv1 cells incubated for 24 hrs by Western blot analysis; format: cell-based; settings: dose 1-10 µM
[13] = target: Androgen receptor (Homo sapiens, UniProt P10275); experiment: as §2; format: cell-based
[14] = tested on: CWR22R; experiment: Inhibition of colony formation in human 22Rv1 cells incubated for 2 weeks by crystal violet staining based analysis; format: functional, cell-based; settings: dose 0.1-5 µM
[15] = target: T2, Androgen receptor (Homo sapiens); experiment: Binding affinity to AR-NTD in human 22Rv1 cels by SPR analysis
[16] = tested on: CWR22R; experiment: Downregulation of PEG3 mRNA expression in human 22Rv1 cells at 10 uM incubated for 24 hrs by qRT-PCR analysis; format: functional, cell-based
[17] = tested on: CWR22R; experiment: Effect on ER level in human 22Rv1 at 2.5 to 20 uM incubated for 24 hrs by Western blot analysis; format: functional, cell-based; settings: dose 2.5-20 µM
[18] = target: T2, Androgen receptor (Homo sapiens); experiment: Induction of AR degradation in human 22Rv1 cells at 10 uM incubated for 24 hrs in presence of CHX by Western blot analysis; format: cell-based
[19] = target: T2, Androgen receptor (Homo sapiens); experiment: Induction of AR degradation in human 22Rv1 cells at 20 uM incubated for 24 hrs in presence of Bortezomib by Western blot analysis; format: cell-based

For `CC1(C)C(=O)N(c2ccc(C#N)c(C(F)(F)F)c2)C(=O)N1CCNc1ccc(F)c2ncccc12`, the AUC(0-t) [1] was 2870 ng·h/mL, the Activity [2] was “Active” and the Activity [3] was “Active”. The Activity [4] was “Non-Toxic”, the Activity [5] was 18.81% and the Activity [6] was “Dose-Dependent Effect”. The Activity [7] was “Active”, the DC50 [8] was 2670 nM and the Activity [9] was “Dose-Dependent Effect”. The Activity [10] was “Active”, the MRT inf [11] was 4.1 h and the Activity [12] was “Dose-Dependent Effect”. For the same molecule, the DC50 [13] was 2640 nM, the inhibition [14] was “Dose-Dependent Effect” and the Activity [15] was “Active”. For the same molecule, the Activity [16] was “Active”, the Activity [17] was “Active” and the Activity [18] was “Active”. The Activity [19] was “Active”.

— ChEMBL document CHEMBL5518238, “Structure-Activity Relationship (SAR) Studies of Novel Monovalent AR/AR-V7 Dual Degraders with Potent Efficacy against Advanced Prostate Cancer” (J Med Chem, 2024)
